# Reference: PMC7700809 (Molecular Biomedicine, 2020)
# Read-outs that look alike come from different tables or passages of the source.
# Tests used:
# [1] = In vivo plasma pharmacokinetics in beagle dogs; conditions: Dog; for MRT last: read-out: MRT0-t; for MRT inf: read-out: MRT0-∞
# Procedure: (§1) After dosage, blood samples were collected into heparinized tubes at 2, 5, 15, 30, 60, 120, 240, 360, 540, and 720 min for the i.v. group, and at 5, 15, 30, 60, 90, 120, 240, 360, 540, 720 and 1440 min for the i.g. group. Plasma (100 μL) was isolated from the blood sample by centrifuging at 4 °C and 6000 rpm for 3 min and then stored at − 80 °C until analysis. An aliquot of 100 μL of each plasma sample was mixed with 20 μL of internal standard working solution (200 ng/mL of caffeine). Methanol (400 μL) was then added for precipitation. After vortexing for 5 min and centrifuging at 14000 rpm for 10 min, 5 μL of the supernatant was injected for LC-MS/MS analysis.
# (§2) The PK parameters were analyzed through the noncompartment model using WinNonlin 6.1 software (Pharsight Corporation, Mountain View, USA), including half-life (T1/2), the peak of the plasma concentration (Cmax), the time to peak of the plasma concentration (Tmax), the area under the plasma concentration-time curve during the period of observation (AUC0-t), the area under the plasma concentration-time curve from zero to infinity (AUC0-∞), clearance (CL), apparent volume of distribution (Vd), and the mean residence time.
# TNF-α = TNF-α protein level in M1 polarized THP-1 macrophages (ELISA); type: cell-based, Human; conditions: 0.1 μM, 36 h
# Procedure: (§3) Results are expressed as means ±S.D. (n = 3).
# (§4) Human monocytic THP-1 cells were maintained in RPMI 1640 medium (Corning, USA) supplemented with 2% L-glutamine,10% fetal bovine serum (FBS), 1% penicillin/ streptomycin and […] ß-mercaptoethanol. THP-1 monocytes are differentiated into macrophages by 24 h incubation with 150 nM phorbol 12-myristate 13-acetate (PMA, Sigma, P8139) followed by 24 h incubation in RPMI medium. Macrophages were polarized in M1 macrophages by incubation with 20 ng/ml of IFN-γ (R&D system, #285-IF) and 100 ng/ml of LPS (Sigma, #8630). […] Cytokine secretion in the culture medium was assayed using an ELISA kit according to the procedure recommended by the supplier (IL-6 (MultiSciences, 70-EK106/2–96), TNFα (MultiSciences,70-EK182HS-96)).
# in vitro = conditions: African green monkey
# SARS-CoV-2 = assay: microbe, parasite or virus in culture; type: cell-based; conditions: Severe acute respiratory syndrome coronavirus 2, Vero; read-out: EC50 virus entry blocking
# in vivo [2] = conditions: Sprague-Dawley, rat, lung, po
# Procedure: (§5) The male mice (20–25 g) and Sprague-Dawley rats (180–220 g) were provided by Laboratory Animal Center of Anhui Medical University (Hefei, China), and the beagle dogs were obtained from Nanjing Bosgene Biotech Co., Ltd. All the animals were housed under control conditions (temperature 23 ± 2 °C, humidity 50% ± 5%, 12 h dark/light cycle) with standardized diet and acclimatized for 7 days, prior to the experiments.
# (§6) Seventy-two mice or rats were randomly and equally divided into two groups. […] Tissues (liver, lung, and kidney) were promptly harvested at 1, 2, 4, 6, 9, 12, 24, 48, 72, and 144 h. Each tissue sample was homogenized (Tissue sample:saline ratio of 1:5, w/v). Tissue samples were stored at − 80 °C until further analysis. The preparation process for analysis was the same as described above for plasma.
# (§7) The LC-MS/MS system consisted of a SHIMADZU LC-30 AD series HPLC system (Shimadzu, Kyoto, Japan) and API4000 triple quadrupole mass spectrometer (Applied Biosystems Sciex, Ont., Canada) with electrospray ionization (ESI) source. Separation was carried out on a C18 column (2.1 × 100 mm, 5 μm, Hanbon, Jiangsu, China) kept at 40 °C. The mobile phase consisted of water (containing 0.1% formic acid, mobile phase A) and methanol (mobile phase B) with rate set at 0.3 mL/min. The optimal gradient elution curve included 0–1.0 min, 10% B; a linear increase to 90% a within 0.5 min; 90% B for 3.5 min; a linear decrease to 10% B within 0.5 min. 10% B for 1.5 min; 7.00 min, stop.
# (§8) LC-MS/MS was performed in the positive and multiple reaction monitoring (MRM) mode.
# IL-6 = assay: LPS induced IL-6 protein level in M1 polarized THP-1 macrophages (ELISA); type: cell-based, Human; conditions: 0.01 μM, 36 h
# Procedure: as §3, §4
# in vivo [3] = conditions: male, mouse, lung, po
# Procedure: as §5, §6, §7, §8
# [4] = mice
# [5] = In vivo plasma pharmacokinetics in rats; set-up: species or system Sprague-Dawley rats; conditions: Rat; for MRT last: read-out: MRT0-t; for MRT inf: read-out: MRT0-∞
# Procedure: as §1, §2
# [6] = Sprague-Dawley, iv, I.V. 1 mg/kg
# [7] = Sprague-Dawley, po, P.O. 10 mg/kg
smiles,measurement,setting,value
CC[C@H]1CN2CCc3cc(OC)c(OC)cc3[C@@H]2C[C@@H]1C[C@H]1NCCc2cc(OC)c(OC)cc21 [Emetine],AUMC0-t,[1]; I.V. 1 mg/kg,1331 ± 695 hr*hr.*ng/mL
same,AUMC0-∞,[1]; I.V. 1 mg/kg,1626 ± 679 hr*hr.*ng/mL
same,AUMC0-t,[1]; P.O. 5 mg/kg,"12,464 ± 9313 hr*hr.*ng/mL"
same,AUMC0-∞,[1]; P.O. 5 mg/kg,"19,162 ± 13,435 hr*hr.*ng/mL"
same,Cl,[1]; P.O. 5 mg/kg,72.95 ± 62.47 mL/min/kg
same,Vz,[1]; P.O. 5 mg/kg,"51,033 ± 45,021 mL/kg"
same,AUC(0-inf),"[1]; beagle, iv, I.V. 1 mg/kg",468 ± 298 ng·h/mL
same,AUC(0-t),"[1]; beagle, iv, I.V. 1 mg/kg",449 ± 298 ng·h/mL
same,C0,"[1]; beagle, iv, I.V. 1 mg/kg",351 ± 44 ng/mL
same,Cmax,"[1]; beagle, iv, I.V. 1 mg/kg",260 ± 66.7 ng/mL
same,Tmax,"[1]; beagle, iv, I.V. 1 mg/kg",0.03 h
same,clearance,"[1]; beagle, iv, I.V. 1 mg/kg",45.8 mL/min/kg
same,half-life,"[1]; beagle, iv, I.V. 1 mg/kg",2.45 ± 0.91 h
same,MRT last,"[1]; beagle, iv, I.V. 1 mg/kg",3.2 ± 0.78 h
same,MRT inf,"[1]; beagle, iv, I.V. 1 mg/kg",3.82 ± 0.86 h
same,Vd,"[1]; beagle, iv, I.V. 1 mg/kg, read-out: Vz",9.55 ± 5.26 L/kg
same,AUC(0-inf),"[1]; beagle, po, P.O. 5 mg/kg",1740 ± 1080 ng·h/mL
same,AUC(0-t),"[1]; beagle, po, P.O. 5 mg/kg",1550 ± 964 ng·h/mL
same,Cmax,"[1]; beagle, po, P.O. 5 mg/kg",245 ± 164 ng/mL
same,Tmax,"[1]; beagle, po, P.O. 5 mg/kg",0.25 h
same,half-life,"[1]; beagle, po, P.O. 5 mg/kg",7.99 ± 0.35 h
same,bioavailability,"[1]; beagle, po, P.O. 5 mg/kg vs I.V. 1 mg/kg, read-out: F (oral bioavailability)",74.2 ± 46.2%
same,MRT last,"[1]; beagle, po, P.O. 5 mg/kg",7.63 ± 1.32 h
same,MRT inf,"[1]; beagle, po, P.O. 5 mg/kg",10.7 ± 1.21 h
same,TNF-α expression,TNF-α,moderate effect
same,CC50,in vitro,1.96 µM
same,EC50,SARS-CoV-2,0.019 µM
same,Tmax,in vivo [2]; 1 mg/kg,12 h
same,concentration at 12 h,in vivo [2]; 1 mg/kg,1610 nM
same,concentration at 72 h,in vivo [2]; 1 mg/kg,360 nM
same,concentration at 1 h,in vivo [2]; 1 mg/kg/day,5000 to 6000 nM
same,concentration at 72 h,in vivo [2]; 1 mg/kg/day,4890 nM
same,LPS induced IL-6 expression level,IL-6,significantly reduce
same,concentration at 12 h,in vivo [3]; 1 mg/kg,1800 nM
same,concentration at 72 h,in vivo [3]; 1 mg/kg,230 nM
same,concentration at 1 h,in vivo [3]; 1 mg/kg/day,5000 to 6000 nM
same,concentration at 72 h,in vivo [3]; 1 mg/kg/day,2170 nM
same,Lung concentration,[4]; 1 mg/kg I.V. (12 h value of Table s2),3.8 µM
same,Kidney concentration,"[4]; I.V. 1 mg/kg, 0.033 h",8.52 ± 1.25 µM
same,Liver concentration,"[4]; I.V. 1 mg/kg, 0.033 h",4.11 ± 1.25 µM
same,Plasma concentration,"[4]; I.V. 1 mg/kg, 0.033 h",150 ± 60 nM
same,Kidney concentration,"[4]; I.V. 1 mg/kg, 0.083 h",8.04 ± 0.57 µM
same,Liver concentration,"[4]; I.V. 1 mg/kg, 0.083 h",3.05 ± 0.23 µM
same,Lung concentration,"[4]; I.V. 1 mg/kg, 0.083 h",16.5 ± 1.59 µM
same,Plasma concentration,"[4]; I.V. 1 mg/kg, 0.083 h",110 ± 20 nM
same,Kidney concentration,"[4]; I.V. 1 mg/kg, 0.5 h",9.48 ± 1.10 µM
same,Liver concentration,"[4]; I.V. 1 mg/kg, 0.5 h",5.01 ± 1.13 µM
same,Lung concentration,"[4]; I.V. 1 mg/kg, 0.5 h",10.3 ± 1.45 µM
same,Plasma concentration,"[4]; I.V. 1 mg/kg, 0.5 h",40 ± 20 nM
same,Kidney concentration,"[4]; I.V. 1 mg/kg, 1 h",9.24 ± 0.44 µM
same,Liver concentration,"[4]; I.V. 1 mg/kg, 1 h",4.78 ± 0.43 µM
same,Lung concentration,"[4]; I.V. 1 mg/kg, 1 h",7.73 ± 1.22 µM
same,Plasma concentration,"[4]; I.V. 1 mg/kg, 1 h",30 ± 6 nM
same,Kidney concentration,"[4]; I.V. 1 mg/kg, 2 h",9.04 ± 0.15 µM
same,Liver concentration,"[4]; I.V. 1 mg/kg, 2 h",6.12 ± 1.37 µM
same,Lung concentration,"[4]; I.V. 1 mg/kg, 2 h",7.12 ± 2.30 µM
same,Plasma concentration,"[4]; I.V. 1 mg/kg, 2 h",12 ± 3 nM
same,Kidney concentration,"[4]; I.V. 1 mg/kg, 4 h",6.16 ± 0.77 µM
same,Liver concentration,"[4]; I.V. 1 mg/kg, 4 h",6.46 ± 0.57 µM
same,Lung concentration,"[4]; I.V. 1 mg/kg, 4 h",5.85 ± 1.20 µM
same,Plasma concentration,"[4]; I.V. 1 mg/kg, 4 h",7 ± 1 nM
same,Liver concentration,"[4]; I.V. 1 mg/kg, 6 h",6.87 ± 0.65 µM
same,Lung concentration,"[4]; I.V. 1 mg/kg, 6 h",5.42 ± 0.13 µM
same,Plasma concentration,"[4]; I.V. 1 mg/kg, 6 h",9 ± 4 nM
same,Kidney concentration,"[4]; I.V. 1 mg/kg, 9 h",5.96 ± 0.76 µM
same,Liver concentration,"[4]; I.V. 1 mg/kg, 9 h",9.22 ± 0.81 µM
same,Lung concentration,"[4]; I.V. 1 mg/kg, 9 h",5.63 ± 1.00 µM
same,Plasma concentration,"[4]; I.V. 1 mg/kg, 9 h",8 ± 4 nM
same,Kidney concentration,"[4]; I.V. 1 mg/kg, 12 h",4.29 ± 0.79 µM
same,Liver concentration,"[4]; I.V. 1 mg/kg, 12 h",8.17 ± 1.46 µM
same,Lung concentration,"[4]; I.V. 1 mg/kg, 12 h",3.77 ± 0.96 µM
same,Plasma concentration,"[4]; I.V. 1 mg/kg, 12 h",7 ± 5 nM
same,Kidney concentration,"[4]; I.V. 1 mg/kg, 48 h",0.879 ± 0.278 µM
same,Liver concentration,"[4]; I.V. 1 mg/kg, 48 h",1.67 ± 0.872 µM
same,Lung concentration,"[4]; I.V. 1 mg/kg, 48 h",1.67 ± 0.28 µM
same,Liver concentration,"[4]; I.V. 1 mg/kg, 72 h",0.620 ± 0.024 µM
same,Lung concentration,"[4]; I.V. 1 mg/kg, 72 h",0.852 ± 0.075 µM
same,Kidney concentration,"[4]; I.V. 1 mg/kg, 144 h",0.174 ± 0.018 µM
same,Liver concentration,"[4]; I.V. 1 mg/kg, 144 h",0.129 ± 0.041 µM
same,Lung concentration,"[4]; I.V. 1 mg/kg, 144 h",0.263 ± 0.034 µM
same,AUMC0-t,"[4]; I.V. 1 mg/kg, Kidney","193,238 hr*hr.*ng/mL"
same,AUMC0-∞,"[4]; I.V. 1 mg/kg, Kidney","2,810,677 hr*hr.*ng/mL"
same,AUMC0-t,"[4]; I.V. 1 mg/kg, Liver","275,511 hr*hr.*ng/mL"
same,AUMC0-∞,"[4]; I.V. 1 mg/kg, Liver","3,897,180 hr*hr.*ng/mL"
same,AUMC0-t,"[4]; I.V. 1 mg/kg, Lung","181,502 hr*hr.*ng/mL"
same,AUMC0-∞,"[4]; I.V. 1 mg/kg, Lung","1,038,814 hr*hr.*ng/mL"
same,AUMC0-t,[5]; I.V. 1 mg/kg,131 ± 18 hr*hr.*ng/mL
same,AUMC0-∞,[5]; I.V. 1 mg/kg,320 ± 141 hr*hr.*ng/mL
same,AUMC0-t,[5]; P.O. 10 mg/kg,1989 ± 15 hr*hr.*ng/mL
same,AUMC0-∞,[5]; P.O. 10 mg/kg,3676 ± 1871 hr*hr.*ng/mL
same,Cl,[5]; P.O. 10 mg/kg,"45,918 ± 5515 mL/hr./kg"
same,AUC(0-inf),[5]; [6],39.8 ± 11.3 ng·h/mL
same,AUC(0-t),[5]; [6],29.8 ± 6.1 ng·h/mL
same,C0,[5]; [6],33.5 ± 2.4 ng/mL
same,Cmax,[5]; [6],26.9 ± 4.8 ng/mL
same,Tmax,[5]; [6],0.03 h
same,clearance,[5]; [6],445 mL/min/kg
same,half-life,[5]; [6],4.46 ± 1.18 h
same,MRT last,[5]; [6],4.41 ± 0.31 h
same,MRT inf,[5]; [6],7.76 ± 1.81 h
same,Vd,"[5]; Sprague-Dawley, iv, I.V. 1 mg/kg, read-out: Vz",163 L/kg
same,AUC(0-inf),[5]; [7],220 ± 28 ng·h/mL
same,AUC(0-t),[5]; [7],172 ± 18 ng·h/mL
same,Cmax,[5]; [7],12.2 ± 3.3 ng/mL
same,Tmax,[5]; [7],9 h
same,half-life,[5]; [7],5.16 ± 4.16 h
same,bioavailability,"[5]; Sprague-Dawley, po, P.O. 10 mg/kg vs I.V. 1 mg/kg, read-out: F (oral bioavailability)",55.3 ± 7.1%
same,MRT last,[5]; [7],11.6 ± 1.33 h
same,MRT inf,[5]; [7],16.2 ± 6 h
